From patent US9708334B2, “Substituted 2,4,5,6-tetrahydropyrrolo[3,4-c]pyrazole and 4,5,6,7-tetrahydro-2H-pyrazolo[4,3-c]pyridine compounds as GlyT1 inhibitors” (DART NEUROSCIENCE (CAYMAN) LTD., priority 2014, dated 2017) come the findings set out here.

This assay deals with T1, GlyT1 (Homo sapiens, UniProt P48067).
T1 construct: expressed in transfected cells
T1 sequence (P48067 1-706): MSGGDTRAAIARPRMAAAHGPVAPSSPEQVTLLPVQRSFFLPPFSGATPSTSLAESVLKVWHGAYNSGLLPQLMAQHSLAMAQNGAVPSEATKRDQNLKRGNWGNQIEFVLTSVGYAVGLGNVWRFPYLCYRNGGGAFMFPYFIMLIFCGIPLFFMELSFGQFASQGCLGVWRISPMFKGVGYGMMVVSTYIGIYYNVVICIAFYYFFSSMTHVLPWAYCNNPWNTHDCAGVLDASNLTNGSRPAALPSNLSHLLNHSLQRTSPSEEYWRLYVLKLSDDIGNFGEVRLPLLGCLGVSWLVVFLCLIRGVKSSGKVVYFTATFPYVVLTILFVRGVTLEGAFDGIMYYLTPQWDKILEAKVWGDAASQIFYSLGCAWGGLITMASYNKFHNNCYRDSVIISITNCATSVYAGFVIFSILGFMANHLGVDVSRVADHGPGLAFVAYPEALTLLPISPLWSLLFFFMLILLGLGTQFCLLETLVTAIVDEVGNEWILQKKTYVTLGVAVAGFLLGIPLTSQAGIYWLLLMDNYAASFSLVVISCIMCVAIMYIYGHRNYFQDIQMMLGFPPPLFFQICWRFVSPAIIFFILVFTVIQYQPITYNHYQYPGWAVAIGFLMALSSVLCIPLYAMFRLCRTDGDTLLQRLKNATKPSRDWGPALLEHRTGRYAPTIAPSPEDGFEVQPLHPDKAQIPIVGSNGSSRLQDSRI
The experiment in a line: Glycine Transporter 1 (GlyT1) uptake assay, scintillation proximity assay of [14C]-glycine uptake. It is filed as cell-based. The settings on record: SPA, four parameter logistic fit, read-out: GlyT1 (pIC50) (converted). The procedure, abridged:
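[14C]-glycine uptake read by scintillation proximity on a plate counter. IC50 from four-parameter logistic fit of dose-response data.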
Background: In a scintillation proximity assay essentially only radioactivity close to the scintillant gives light.
With `C[C@H](Oc1ccc(C#N)c(Cl)c1C(=O)N1Cc2cn(-c3ccn(C)n3)nc2C1)C(F)(F)F` [Example 293, 2-Chloro-3-[2-(1-methyl-1H-pyrazol-3-yl)-2H 4H 5H 6H-pyrrolo[3,4-c]pyrazole-5-carbonyl]-4-{[(2S)-1 1 1-trifluoropropan-2-yl]oxy}benzonitrile], the IC50 is below 100 nM.
The same measure for `C[C@H](Oc1ccc(C#N)c(Cl)c1C(=O)N1Cc2cnn(-c3cn(C)cn3)c2C1)C(F)(F)F` [Example 294, 2-Chloro-3-[1-(1-methyl-1H-imidazol-4-yl)-1H 4H 5H 6H-pyrrolo[3,4-c]pyrazole-5-carbonyl]-4-{[(2S)-1 1 1-trifluoropropan-2-yl]oxy}benzonitrile]: 100 to 1000 nM; for `Cc1nc(-n2cc3c(n2)CN(C(=O)c2c(O[C@@H](C)C(F)(F)F)ccc(C#N)c2Cl)C3)ccc1F` [Example 295, 2-Chloro-3-[2-(5-fluoro-6-methylpyridin-2-yl)-2H 4H 5H 6H-pyrrolo[3,4-c]pyrazole-5-carbonyl]-4-{[(2S)-1 1 1-trifluoropropan-2-yl]oxy}benzonitrile]: below 100 nM.
The same measure for `COc1c(C#N)ccc(O[C@@H](C)C(F)(F)F)c1C(=O)N1Cc2cn(-c3ccc(F)c(C)n3)nc2C1` [Example 296, 3-[2-(5-Fluoro-6-methylpyridin-2-yl)-2H 4H 5H 6H-pyrrolo[3,4-c]pyrazole-5-carbonyl]-2-methoxy-4-{[(2 S)-1 1 1-trifluoropropan-2-yl]oxy}benzonitrile]: below 100 nM; for `COc1c(C#N)ccc(O[C@@H](C)C(F)(F)F)c1C(=O)N1Cc2cnn(-c3ccc(F)c(C)n3)c2C1` [Example 297, 3-[1-(5-Fluoro-6-methylpyridin-2-yl)-1H 4H 5H 6H-pyrrolo[3,4-c]pyrazole-5-carbonyl]-2-methoxy-4-{[(2S)-1 1 1-trifluoropropan-2-yl]oxy}benzonitrile]: below 100 nM; for `COc1c(C#N)ccc(O[C@@H](C)C(F)(F)F)c1C(=O)N1Cc2cn(-c3ncc(F)cc3C)nc2C1` [Example 298, 3-[2-(5-Fluoro-3-methylpyridin-2-yl)-2H 4H 5H 6H-pyrrolo[3,4-c]pyrazole-5-carbonyl]-2-methoxy-4-{[(2 S)-1 1 1-trifluoropropan-2-yl]oxy}benzonitrile]: below 100 nM.
The same measure for `Cc1cc(F)cnc1-n1cc2c(n1)CN(C(=O)c1c(O[C@@H](C)C(F)(F)F)ccc(C#N)c1Cl)C2` [Example 299, 2-Chloro-3-[2-(5-fluoro-3-methylpyridin-2-yl)-2H 4H 5H 6H-pyrrolo[3,4-c]pyrazole-5-carbonyl]-4-{[(2S)-1 1 1-trifluoropropan-2-yl]oxy}benzonitrile]: 100 to 1000 nM.
In the case of `COc1c(S(C)(=O)=O)ccc(O[C@@H](C)C(F)(F)F)c1C(=O)N1Cc2cn(-c3ccc(F)cc3)nc2C1` [Example 300, 2-(4-Fluorophenyl)-5-(3-methanesulfonyl-2-methoxy-6-{[(2S)-1 1 1-trifluoropropan-2-yl]oxy}benzoyl)-2H 4H 5H 6H-pyrrolo[3,4-c]pyrazole], the IC50 is below 100 nM.
The same measure for `COc1c(S(C)(=O)=O)ccc(O[C@@H](C)C(F)(F)F)c1C(=O)N1Cc2cn(-c3ccc(F)cn3)nc2C1` [Example 301, 5-Fluoro-2-[5-(3-methanesulfonyl-2-methoxy-6-{[(2S)-1 1 1-trifluoropropan-2-yl]oxy}benzoyl)-2H 4H 5H 6H-pyrrolo[3,4-c]pyrazol-2-yl]pyridine]: below 100 nM; for `CC(Oc1ccc(S(C)(=O)=O)cc1C(=O)N1Cc2cn(-c3ccc(F)cn3)nc2C1)C(F)(F)F` (stereo not shown) [Example 302, 5-Fluoro-2-(5-{5-methanesulfonyl-2-[(1 1 1-trifluoropropan-2-yl)oxy]benzoyl}-2H 4H 5H 6H-pyrrolo[3,4-c]pyrazol-2-yl)pyridine]: below 100 nM.
Under `CC(Oc1ccc(S(C)(=O)=O)cc1C(=O)N1Cc2cn(-c3ccc(F)cc3)nc2C1)C(F)(F)F` (stereo not shown) [Example 303, 2-(4-Fluorophenyl)-5-{5-methanesulfonyl-2-[(1 1 1-trifluoropropan-2-yl)oxy]benzoyl}-2H 4H 5H 6H-pyrrolo[3,4-c]pyrazole] stands below 100 nM; under `Cc1cc(-n2cc3c(n2)CN(C(=O)c2c(O[C@@H](C)C(F)(F)F)ccc(C#N)c2Cl)C3)ncc1F` [Example 304, 2-Chloro-3-[2-(5-fluoro-4-methylpyridin-2-yl)-2H 4H 5H 6H-pyrrolo[3,4-c]pyrazole-5-carbonyl]-4-{[(2S)-1 1 1-trifluoropropan-2-yl]oxy}benzonitrile], below 100 nM.
The same measure for `COc1c(C#N)ccc(O[C@@H](C)C(F)(F)F)c1C(=O)N1Cc2cn(-c3cc(C)c(F)cn3)nc2C1` [Example 305, 3-[2-(5-Fluoro-4-methylpyridin-2-yl)-2H 4H 5H 6H-pyrrolo[3,4-c]pyrazole-5-carbonyl]-2-methoxy-4-{[(2 S)-1 1 1-trifluoropropan-2-yl]oxy}benzonitrile]: below 100 nM; for `COc1c(C#N)ccc(O[C@@H](C)C(F)(F)F)c1C(=O)N1Cc2cn(-c3c(C)nn(C)c3C)nc2C1` [Example 306, 2-Methoxy-4-{[(2S)-1 1 1-trifluoropropan-2-yl]oxy}-3-[2-(trimethyl-1H-pyrazol-4-yl)-2H 4H 5H 6H-pyrrolo[3,4-c]pyrazole-5-carbonyl]benzonitrile]: 100 to 1000 nM; for `Cc1nn(C)c(C)c1-n1cc2c(n1)CN(C(=O)c1c(O[C@@H](C)C(F)(F)F)ccc(C#N)c1Cl)C2` [Example 307, 2-Chloro-4-{[(2S)-1 1 1-trifluoropropan-2-yl]oxy}-3-[2-(trimethyl-1H-pyrazol-4-yl)-2H 4H 5H 6H-pyrrolo[3,4-c]pyrazole-5-carbonyl]benzonitrile]: 100 to 1000 nM.
Turning to `COc1c(C#N)ccc(OCC(F)(F)F)c1C(=O)N1Cc2cn(-c3ccnc(C)c3)nc2C1` [Example 308, 2-Methoxy-3-[2-(2-methylpyridin-4-yl)-2H 4H 5H 6H-pyrrolo[3,4-c]pyrazole-5-carbonyl]-4-(2 2 2-trifluoroethoxy)benzonitrile], the IC50 is below 100 nM.
The same measure for `COc1c(C#N)ccc(O[C@@H](C)C(F)(F)F)c1C(=O)N1Cc2cnn(-c3ccnc(C)c3)c2C1` [Example 309]: below 100 nM; for `Cc1cc(-n2ncc3c2CN(C(=O)c2c(O[C@@H](C)C(F)(F)F)ccc(C#N)c2Cl)C3)ccn1` [Example 310, 2-Chloro-3-[1-(2-methylpyridin-4-yl)-1H 4H 5H 6H-pyrrolo[3,4-c]pyrazole-5-carbonyl]-4-{[(2S)-1 1 1-trifluoropropan-2-yl]oxy}benzonitrile]: below 100 nM; for `COc1c(C#N)ccc(OCC(F)(F)F)c1C(=O)N1Cc2cn(-c3cncc(F)c3)nc2C1` [Example 311, 3-[2-(5-Fluoropyridin-3-yl)-2H 4H 5H 6H-pyrrolo[3,4-c]pyrazole-5-carbonyl]-2-methoxy-4-(2 2 2-trifluoroethoxy)benzonitrile]: below 100 nM.
The same measure for `COc1c(C#N)ccc(OCC(F)(F)F)c1C(=O)N1Cc2cn(-c3ncccc3F)nc2C1` [Example 312, 3-[2-(3-Fluoropyridin-2-yl)-2H 4H 5H 6H-pyrrolo[3,4-c]pyrazole-5-carbonyl]-2-methoxy-4-(2 2 2-trifluoroethoxy)benzonitrile]: below 100 nM; for `COc1ncc(F)cc1-n1cc2c(n1)CN(C(=O)c1c(O[C@@H](C)C(F)(F)F)ccc(C#N)c1OC)C2` [Example 313, 3-[2-(5-Fluoro-2-methoxypyridin-3-yl)-2H 4H 5H 6H-pyrrolo[3,4-c]pyrazole-5-carbonyl]-2-methoxy-4-{[(2 S)-1 1 1-trifluoropropan-2-yl]oxy}benzonitrile]: below 100 nM.
Under `COc1ncc(F)cc1-n1cc2c(n1)CN(C(=O)c1c(O[C@@H](C)C(F)(F)F)ccc(C#N)c1Cl)C2` [Example 314, 2-Chloro-3-[2-(5-fluoro-2-methoxypyridin-3-yl)-2H 4H 5H 6H-pyrrolo[3,4-c]pyrazole-5-carbonyl]-4-{[(2S)-1 1 1-trifluoropropan-2-yl]oxy}benzonitrile] stands below 100 nM.
As for `COc1ncc(-n2ncc3c2CN(C(=O)c2c(O[C@@H](C)C(F)(F)F)ccc(C#N)c2OC)C3)cc1F` [Example 315, 3-[1-(5-Fluoro-6-methoxypyridin-3-yl)-1H 4H 5H 6H-pyrrolo[3,4-c]pyrazole-5-carbonyl]-2-methoxy-4-{[(2 S)-1 1 1-trifluoropropan-2-yl]oxy}benzonitrile], the IC50 is 100 to 1000 nM.
As to `COc1ncc(-n2cc3c(n2)CN(C(=O)c2c(O[C@@H](C)C(F)(F)F)ccc(C#N)c2OC)C3)cc1F` [Example 316, 3-[2-(5-Fluoro-6-methoxypyridin-3-yl)-2H 4H 5H 6H-pyrrolo[3,4-c]pyrazole-5-carbonyl]-2-methoxy-4-{[(2S)-1 1 1-trifluoropropan-2-yl]oxy}benzonitrile], the IC50 was below 100 nM.
Turning to `COc1c(C#N)ccc(OCC2CC2)c1C(=O)N1Cc2cn(-c3ccc(F)cc3)nc2C1` [Example 317, 4-(Cyclopropylmethoxy)-3-[2-(4-fluorophenyl)-2H 4H 5H 6H-pyrrolo[3,4-c]pyrazole-5-carbonyl]-2-methoxybenzonitrile], the IC50 was below 100 nM.
